# Data taken from patent publication US10253039B2, “Inhibitors of bacterial DNA gyrase with efficacy against gram-negative bacteria” (priority 2014, dated 2019).
# Test system: E. coli BW25113
# Experiment: MIC, microdilution in 96-well plates
# Type: cell-based
# Conditions: Escherichia coli, BW25113, B: E. coli BW25113; read-out: MIC
# Procedure, shortened: (§1)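 Broth microdilution per CLSI guidance: each strain was diluted 1:10000 from a growing subculture into Luria-Bertani medium, and compound was serially diluted 2-fold in triplicate alongside a DMSO column. Plates were shaken at 37° C. for 16-18 hours; MIC is the lowest concentration showing no visible turbidity.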
row,SMILES,MIC [mg/L]
1,COc1ccccc1-c1ccc(CN2CC[C@@H](NS(=O)(=O)c3cccc(C#N)c3)C2)cc1 [Compound 127],> 8
2,Cc1c(S(=O)(=O)N[C@@H]2CCN(Cc3ccc(OC4CC4)cc3)C2)sc2ccc(Cl)cc12 [Compound 85],> 8
3,O=S(=O)(N[C@@H]1CCN(Cc2ccc(-c3ccccc3)cc2)C1)c1cccc(C(F)(F)F)c1 [Compound 27],> 8
4,O=S(=O)(N[C@@H]1CCN(Cc2ccc3c(c2)OCCO3)C1)c1cccc(C(F)(F)F)c1 [Compound 60],> 8
5,O=S(=O)(N[C@@H]1CCN(Cc2ccc(-c3ccccc3)cc2)C1)c1cc(C(F)(F)F)ccc1F [Compound 114],> 8

# Test system: Edwardsiella tarda
# Experiment: MIC, microdilution in 96-well plates
# Type: cell-based
# Conditions: D: Edwardsiella tarda
# Procedure, shortened: as §1
row,SMILES,MIC [mg/L]
1,COc1ccccc1-c1ccc(CN2CC[C@@H](NS(=O)(=O)c3cccc(C#N)c3)C2)cc1 [Compound 127],> 8
2,Cc1c(S(=O)(=O)N[C@@H]2CCN(Cc3ccc(OC4CC4)cc3)C2)sc2ccc(Cl)cc12 [Compound 85],> 8
3,O=S(=O)(N[C@@H]1CCN(Cc2ccc(-c3ccccc3)cc2)C1)c1cccc(C(F)(F)F)c1 [Compound 27],> 8
4,O=S(=O)(N[C@@H]1CCN(Cc2ccc3c(c2)OCCO3)C1)c1cccc(C(F)(F)F)c1 [Compound 60],> 8
5,O=S(=O)(N[C@@H]1CCN(Cc2ccc(-c3ccccc3)cc2)C1)c1cc(C(F)(F)F)ccc1F [Compound 114],> 8

# Test system: E. coli JW5503 (deltolC)
# Experiment: MIC, 20-strain panel
# Type: cell-based
# Conditions: Escherichia coli, C: E. coli JW5503 (deltolC)
# Procedure, shortened: as §1
row,SMILES,MIC [mg/L]
1,COc1ccccc1-c1ccc(CN2CC[C@@H](NS(=O)(=O)c3cccc(C#N)c3)C2)cc1 [Compound 127],4
2,Cc1c(S(=O)(=O)N[C@@H]2CCN(Cc3ccc(OC4CC4)cc3)C2)sc2ccc(Cl)cc12 [Compound 85],~8
3,O=S(=O)(N[C@@H]1CCN(Cc2ccc(-c3ccccc3)cc2)C1)c1cccc(C(F)(F)F)c1 [Compound 27],0.5
4,O=S(=O)(N[C@@H]1CCN(Cc2ccc3c(c2)OCCO3)C1)c1cccc(C(F)(F)F)c1 [Compound 60],8
5,O=S(=O)(N[C@@H]1CCN(Cc2ccc(-c3ccccc3)cc2)C1)c1cc(C(F)(F)F)ccc1F [Compound 114],1

# Test system: E. coli MG1655
# Experiment: MIC, 20-strain panel
# Type: cell-based
# Conditions: Escherichia coli, MG1655, A: E. coli MG1655; read-out: MIC
# Procedure, shortened: as §1
row,SMILES,MIC [mg/L]
1,COc1ccccc1-c1ccc(CN2CC[C@@H](NS(=O)(=O)c3cccc(C#N)c3)C2)cc1 [Compound 127],> 8
2,Cc1c(S(=O)(=O)N[C@@H]2CCN(Cc3ccc(OC4CC4)cc3)C2)sc2ccc(Cl)cc12 [Compound 85],> 8
3,O=S(=O)(N[C@@H]1CCN(Cc2ccc(-c3ccccc3)cc2)C1)c1cccc(C(F)(F)F)c1 [Compound 27],> 8
4,O=S(=O)(N[C@@H]1CCN(Cc2ccc3c(c2)OCCO3)C1)c1cccc(C(F)(F)F)c1 [Compound 60],> 8
5,O=S(=O)(N[C@@H]1CCN(Cc2ccc(-c3ccccc3)cc2)C1)c1cc(C(F)(F)F)ccc1F [Compound 114],> 8

# Test system: Klebsiella pneumoniae subsp. pneumoniae
# Experiment: MIC, 20-strain panel
# Type: cell-based
# Conditions: E: Klebsiella pneumoniae subsp. pneumoniae
# Procedure, shortened: as §1
row,SMILES,MIC [mg/L]
1,COc1ccccc1-c1ccc(CN2CC[C@@H](NS(=O)(=O)c3cccc(C#N)c3)C2)cc1 [Compound 127],> 8
2,Cc1c(S(=O)(=O)N[C@@H]2CCN(Cc3ccc(OC4CC4)cc3)C2)sc2ccc(Cl)cc12 [Compound 85],> 8
3,O=S(=O)(N[C@@H]1CCN(Cc2ccc(-c3ccccc3)cc2)C1)c1cccc(C(F)(F)F)c1 [Compound 27],> 8
4,O=S(=O)(N[C@@H]1CCN(Cc2ccc3c(c2)OCCO3)C1)c1cccc(C(F)(F)F)c1 [Compound 60],> 8
5,O=S(=O)(N[C@@H]1CCN(Cc2ccc(-c3ccccc3)cc2)C1)c1cc(C(F)(F)F)ccc1F [Compound 114],> 8

# Test system: Salmonella enterica subsp. enterica typhimurium
# Experiment: MIC, 20-strain panel
# Type: cell-based
# Conditions: F: Salmonella enterica subsp. enterica Typhimurium
# Procedure, shortened: as §1
row,SMILES,MIC [mg/L]
1,COc1ccccc1-c1ccc(CN2CC[C@@H](NS(=O)(=O)c3cccc(C#N)c3)C2)cc1 [Compound 127],> 8
2,Cc1c(S(=O)(=O)N[C@@H]2CCN(Cc3ccc(OC4CC4)cc3)C2)sc2ccc(Cl)cc12 [Compound 85],> 8
3,O=S(=O)(N[C@@H]1CCN(Cc2ccc(-c3ccccc3)cc2)C1)c1cccc(C(F)(F)F)c1 [Compound 27],4
4,O=S(=O)(N[C@@H]1CCN(Cc2ccc3c(c2)OCCO3)C1)c1cccc(C(F)(F)F)c1 [Compound 60],> 8
5,O=S(=O)(N[C@@H]1CCN(Cc2ccc(-c3ccccc3)cc2)C1)c1cc(C(F)(F)F)ccc1F [Compound 114],4

# Test system: Shigella flexneri
# Experiment: MIC, 20-strain panel
# Type: cell-based
# Conditions: G: Shigella flexneri
# Procedure, shortened: as §1
row,SMILES,MIC [mg/L]
1,COc1ccccc1-c1ccc(CN2CC[C@@H](NS(=O)(=O)c3cccc(C#N)c3)C2)cc1 [Compound 127],> 8
2,Cc1c(S(=O)(=O)N[C@@H]2CCN(Cc3ccc(OC4CC4)cc3)C2)sc2ccc(Cl)cc12 [Compound 85],> 8
3,O=S(=O)(N[C@@H]1CCN(Cc2ccc(-c3ccccc3)cc2)C1)c1cccc(C(F)(F)F)c1 [Compound 27],> 8
4,O=S(=O)(N[C@@H]1CCN(Cc2ccc3c(c2)OCCO3)C1)c1cccc(C(F)(F)F)c1 [Compound 60],> 8
5,O=S(=O)(N[C@@H]1CCN(Cc2ccc(-c3ccccc3)cc2)C1)c1cc(C(F)(F)F)ccc1F [Compound 114],> 8

# Test system: Staphylococcus aureus subsp. aureus
# Experiment: MIC, 20-strain panel
# Type: cell-based
# Conditions: H: Staphylococcus aureus subsp. aureus, read-out: MIC
# Procedure, shortened: as §1
row,SMILES,MIC [mg/L]
1,COc1ccccc1-c1ccc(CN2CC[C@@H](NS(=O)(=O)c3cccc(C#N)c3)C2)cc1 [Compound 127],> 8
2,Cc1c(S(=O)(=O)N[C@@H]2CCN(Cc3ccc(OC4CC4)cc3)C2)sc2ccc(Cl)cc12 [Compound 85],~8
3,O=S(=O)(N[C@@H]1CCN(Cc2ccc(-c3ccccc3)cc2)C1)c1cccc(C(F)(F)F)c1 [Compound 27],> 8
4,O=S(=O)(N[C@@H]1CCN(Cc2ccc3c(c2)OCCO3)C1)c1cccc(C(F)(F)F)c1 [Compound 60],> 8
5,O=S(=O)(N[C@@H]1CCN(Cc2ccc(-c3ccccc3)cc2)C1)c1cc(C(F)(F)F)ccc1F [Compound 114],> 8

# Test system: Staphylococcus epidermidis
# Experiment: MIC, 20-strain panel
# Type: cell-based
# Conditions: not given
# Procedure, shortened: as §1
row,SMILES,MIC [mg/L]
1,COc1ccccc1-c1ccc(CN2CC[C@@H](NS(=O)(=O)c3cccc(C#N)c3)C2)cc1 [Compound 127],> 8
2,Cc1c(S(=O)(=O)N[C@@H]2CCN(Cc3ccc(OC4CC4)cc3)C2)sc2ccc(Cl)cc12 [Compound 85],4
3,O=S(=O)(N[C@@H]1CCN(Cc2ccc(-c3ccccc3)cc2)C1)c1cccc(C(F)(F)F)c1 [Compound 27],8
4,O=S(=O)(N[C@@H]1CCN(Cc2ccc3c(c2)OCCO3)C1)c1cccc(C(F)(F)F)c1 [Compound 60],> 8
5,O=S(=O)(N[C@@H]1CCN(Cc2ccc(-c3ccccc3)cc2)C1)c1cc(C(F)(F)F)ccc1F [Compound 114],~8

# Test system: Staphylococcus saprophyticus subsp. saprophyticus
# Experiment: MIC, 20-strain panel
# Type: cell-based
# Conditions: not given
# Procedure, shortened: as §1
row,SMILES,MIC [mg/L]
1,COc1ccccc1-c1ccc(CN2CC[C@@H](NS(=O)(=O)c3cccc(C#N)c3)C2)cc1 [Compound 127],> 8
2,Cc1c(S(=O)(=O)N[C@@H]2CCN(Cc3ccc(OC4CC4)cc3)C2)sc2ccc(Cl)cc12 [Compound 85],> 8
3,O=S(=O)(N[C@@H]1CCN(Cc2ccc(-c3ccccc3)cc2)C1)c1cccc(C(F)(F)F)c1 [Compound 27],> 8
4,O=S(=O)(N[C@@H]1CCN(Cc2ccc3c(c2)OCCO3)C1)c1cccc(C(F)(F)F)c1 [Compound 60],> 8
5,O=S(=O)(N[C@@H]1CCN(Cc2ccc(-c3ccccc3)cc2)C1)c1cc(C(F)(F)F)ccc1F [Compound 114],> 8

# Test system: Streptococcus agalactiae
# Experiment: MIC, 20-strain panel
# Type: cell-based
# Conditions: not given
# Procedure, shortened: as §1
row,SMILES,MIC [mg/L]
1,COc1ccccc1-c1ccc(CN2CC[C@@H](NS(=O)(=O)c3cccc(C#N)c3)C2)cc1 [Compound 127],> 8
2,Cc1c(S(=O)(=O)N[C@@H]2CCN(Cc3ccc(OC4CC4)cc3)C2)sc2ccc(Cl)cc12 [Compound 85],> 8
3,O=S(=O)(N[C@@H]1CCN(Cc2ccc(-c3ccccc3)cc2)C1)c1cccc(C(F)(F)F)c1 [Compound 27],> 8
4,O=S(=O)(N[C@@H]1CCN(Cc2ccc3c(c2)OCCO3)C1)c1cccc(C(F)(F)F)c1 [Compound 60],> 8
5,O=S(=O)(N[C@@H]1CCN(Cc2ccc(-c3ccccc3)cc2)C1)c1cc(C(F)(F)F)ccc1F [Compound 114],> 8

# Test system: Streptococcus pyogenes
# Experiment: MIC, 20-strain panel
# Type: cell-based
# Conditions: not given
# Procedure, shortened: as §1
row,SMILES,MIC [mg/L]
1,COc1ccccc1-c1ccc(CN2CC[C@@H](NS(=O)(=O)c3cccc(C#N)c3)C2)cc1 [Compound 127],> 8
2,Cc1c(S(=O)(=O)N[C@@H]2CCN(Cc3ccc(OC4CC4)cc3)C2)sc2ccc(Cl)cc12 [Compound 85],8
3,O=S(=O)(N[C@@H]1CCN(Cc2ccc(-c3ccccc3)cc2)C1)c1cccc(C(F)(F)F)c1 [Compound 27],8
4,O=S(=O)(N[C@@H]1CCN(Cc2ccc3c(c2)OCCO3)C1)c1cccc(C(F)(F)F)c1 [Compound 60],> 8
5,O=S(=O)(N[C@@H]1CCN(Cc2ccc(-c3ccccc3)cc2)C1)c1cc(C(F)(F)F)ccc1F [Compound 114],~8
